How the values were obtained:
[1] = Solubility in Cyclomethicone; format: physicochemical; details: at RT
[2] = UV absorption (λmax, E 1/1); format: physicochemical; details: for E 1/1: at λmax

Structure (SMILES)	solubility in Cyclomethicone [1]	λmax [2]	E 1/1 [2]
CCN(CC)c1ccc(C(=O)c2ccccc2C(=O)OCCC[Si](C)(C)C)c(O)c1 [Example A1]	1.8%	350 nm	822
CCN(CC)c1ccc(C(=O)c2ccccc2C(=O)OCCOC(=O)C(C)C[Si](C)(O[Si](C)(C)C)O[Si](C)(C)C)c(O)c1 (centres unmarked) [Example A2]	> 20%	350 nm	571
CCN(CC)c1ccc(C(=O)c2ccccc2C(=O)OCCOC(=O)C(C)C[Si](C)(O[Si](C)(C)C)O[Si](C)(C)C)c(O)c1 (centres unmarked) [Example A3]	–	357 nm	606

— patent publication US7999128B2, “Hydroxybenzophenone derivatives” (BASF SE, priority 2006, dated 2011)
